According to patent publication US20070021391A1, “Preventive/remedy for urinary disturbance” (priority 2003, published 2007):
Counter-ions that a name gives are not always drawn.

What was measured:
Hartley male guinea pig = assay: Acetylcholine inductive salivation in guinea pig (Example 5); type: in vivo
Protocol: (§1) A male SD rat (CLEA Japan Inc.) with a body weight of about 400 g or a Hartley male guinea pig with a body weight of 400 to 500 g (Japan SLC) were used. After urethane anesthesia, sanitary cotton preliminarily weighed was inserted in the mouth of the animal and acetylcholine was intravenously administrated. After 5 minutes, the sanitary cotton was taken out to be weighed and the amount of saliva secreted was measured. The drug was intravenously administrated at 10 min before the administration of acetylcholine. The effect of oxybutynin was analyzed by paired t calibration and the concomitant use effect of the compound A was analyzed by William calibration.

[1] = system: Hartley male guinea pig, urethane anesthesia; assay: Urine flow dynamic parameters with oxybutynin and compound A (Example 6); type: in vivo; conditions: oxybutynin 1 mg/kg
Protocol: A Hartley male guinea pig with a body weight of about 500 g (Japan SLC Hamamatsu) was used. After urethane anesthesia (1.4 g/kg, i.p.), the medial incision of the lower abdomen was carried out, and the bladder was exposed. Two injection needles (20G) with which a polyethylene tube (PE-100, Becton Dickinson, Franklin Lakes, N.J., USA) was linked were inserted in the bladder, and one needle was used for injection of saline and another needle was used for measurement of the inner pressure of the bladder. Further, a cannula (PE-10, Becton Dickinson) for injection of phenylephrine was inserted in right common jugular vein. […] The amount of urine eliminated was measured by an electronic weighing machine (GX-400, A&D, Tokyo) and the inner pressure of the bladder was measured using a pressure transducer (AP641G, NIPPON KODEN Corporation, Tokyo). The analogue data of the weight of urine and the inner pressure of the bladder were inputted in a multi-channel data analyzer (MP-100A-CE, Biopac systems), and analyzed by a proprietary software (Acqknowledge 3.7.1, Biopac systems). The sampling interval of data was 0.1 sec and a low pass filter was applied to the data of discharge amount and urine flow rate at 0.5 Hz in order to remove noise. A delay time of 0.1 sec in weighing the urine was rectified, and the urine flow rate was determined by differentiating the value of discharge amount. The dynamic state parameter of the flow of urine below was measured. A bladder volume, the maximum urine flow rate, urination efficiency (=amount of urination/bladder volume). The effect of oxybutynin was analyzed by the paired t calibration and the concomitant use effect of the compound A was analyzed by Dunnett calibration.

male SD rat = assay: Acetylcholine inductive salivation in rat (Example 5); type: in vivo; conditions: for Amount of saliva secreted: rat
Protocol: as §1

[2] = molecular target: T1, acetylcholine esterase of human erythrocyte origin (Homo sapiens, UniProt P22303); assay: biochemical; type: biochemical
T1 construct: acetylcholine esterase of human erythrocyte origin; purchased Sigma, St. Louis, Mo., USA; host or cells: human erythrocytes
Protocol: (§2) The AChE inhibitory activity and the BuChE inhibitory activity were determined by a thiocholine method (Ellman method) using acetylcholine esterase of human erythrocyte origin (Sigma, St. Louis, Mo., USA) and butyrylcholine esterase of human serum origin (Biogenesis, Poole, UK). Acetylcholine esterase or butyrylcholine esterase was diluted to a concentration of 0.2 IU/mL with 80 mM tris-HCL buffers (pH=7.4) containing 0.3% bovine serum albumin (BSA) to prepare an enzyme preparation. […] The stock solution was diluted at 3-fold common ratio with 10% DMSO and 80 mM tris-HCl buffers containing 0.3% BSA. On a 96 wells microplate, 20 μL of the drug solution with a given concentration, 30 μL of 80 mM tris-HCl buffers containing 0.3% BSA and 50 μL of the enzyme preparation were distributed, and incubated at room temperature for 1 hour after shaking for 10 seconds. […] For the respective drugs, the test was repeated twice. The % of control of the increase in light absorption was calculated at each concentration with respect to the respective drugs. % of control=increase in light absorption of drug/increase in light absorption of control×100

[3] = system: Hartley male guinea pig, urethane anesthesia; assay: Pressure/flow study using guinea pig under continuous phenylephrine (Example 4); type: in vivo; conditions: 0.1 mg/kg, i.v.; phenylephrine 3 μg/animal/min
Protocol: A parameter (the maximum urine flow rate) at urination and a parameter (bladder compliance) at the collection of urine were also measured by a method similar as Example 3 shown below, with respect to the compounds B1 to B6 ([Table 8]).
A Hartley male guinea pig of 4 to 5 weeks old (Japan SLC) was used. After urethane anesthesia, the medial incision of the lower abdomen was carried out, and the bladder was exposed. Two injection needles (20G) with which a polyethylene tube (PE-100) was linked were inserted in the bladder, and one needle was used for injection of saline and another needle was used for measurement of the inner pressure of the bladder. A catheter was inserted in fernoral vein, and phenylephrine was continuously administrated at a flow rate of 3 μg/animal/min. Saline was continuously injected at a speed of 18 mL/h, the injection was stopped after intermittent urination was confirmed 2 times at minimum, and the saline in the bladder was removed by suction. Injection was started again, and the injection was stopped when the raise of the inner pressure of the bladder just before urination was confirmed. The amount of urine eliminated was measured by an electronic weighing machine and the inner pressure of the bladder was measured using a pressure transducer. The analogue data of the weight of urine and the inner pressure of the bladder were inputted in a multi-channel data analyzer (MP-100A-CE, Biopac systems), and analyzed by a proprietary software (Acqknowledge, Biopac systems). As the parameters, the maximum urine flow rate and bladder compliance were measured. Saline in the bladder was extracted after 10 min of the intravenous administration of the compound, and injection was started again to carry out measurement. The compounds were dissolved with DMSO so that administration volume was 0.5 mL/kg. The change rate of respective parameters before and after administration of the compounds was calculated and the calibration of significant difference was carried out by a solvent administration group and t calibration.

[4] = molecular target: T2, butyrylcholine esterase of human serum origin (Homo sapiens, UniProt P06276); assay: biochemical; type: biochemical; conditions: mean value of twice tests; read-out: BuChE IC50
T2 construct: butyrylcholine esterase of human serum origin; purchased Biogenesis, Poole, UK; host or cells: human serum
Protocol: as §2

[5] = acetylcholine 1 mg/kg alone, 5 minutes

T1 sequence (P22303 32-617 isoform P22303-2 limits assumed): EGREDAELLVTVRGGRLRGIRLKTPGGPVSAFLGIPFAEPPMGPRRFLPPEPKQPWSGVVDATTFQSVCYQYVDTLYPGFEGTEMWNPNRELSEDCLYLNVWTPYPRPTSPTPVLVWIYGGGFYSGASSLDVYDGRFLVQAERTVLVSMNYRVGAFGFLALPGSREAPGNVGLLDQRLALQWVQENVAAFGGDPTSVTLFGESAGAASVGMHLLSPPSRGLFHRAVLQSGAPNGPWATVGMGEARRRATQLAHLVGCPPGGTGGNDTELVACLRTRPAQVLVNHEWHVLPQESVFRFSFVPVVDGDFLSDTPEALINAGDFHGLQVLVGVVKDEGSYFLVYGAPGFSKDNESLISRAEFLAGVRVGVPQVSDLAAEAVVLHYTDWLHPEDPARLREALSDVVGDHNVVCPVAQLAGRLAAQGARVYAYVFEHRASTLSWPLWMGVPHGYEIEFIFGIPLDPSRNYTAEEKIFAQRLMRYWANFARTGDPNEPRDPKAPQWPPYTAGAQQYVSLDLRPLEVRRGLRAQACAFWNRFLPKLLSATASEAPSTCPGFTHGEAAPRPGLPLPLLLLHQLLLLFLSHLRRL
T2 sequence (P06276 29-602): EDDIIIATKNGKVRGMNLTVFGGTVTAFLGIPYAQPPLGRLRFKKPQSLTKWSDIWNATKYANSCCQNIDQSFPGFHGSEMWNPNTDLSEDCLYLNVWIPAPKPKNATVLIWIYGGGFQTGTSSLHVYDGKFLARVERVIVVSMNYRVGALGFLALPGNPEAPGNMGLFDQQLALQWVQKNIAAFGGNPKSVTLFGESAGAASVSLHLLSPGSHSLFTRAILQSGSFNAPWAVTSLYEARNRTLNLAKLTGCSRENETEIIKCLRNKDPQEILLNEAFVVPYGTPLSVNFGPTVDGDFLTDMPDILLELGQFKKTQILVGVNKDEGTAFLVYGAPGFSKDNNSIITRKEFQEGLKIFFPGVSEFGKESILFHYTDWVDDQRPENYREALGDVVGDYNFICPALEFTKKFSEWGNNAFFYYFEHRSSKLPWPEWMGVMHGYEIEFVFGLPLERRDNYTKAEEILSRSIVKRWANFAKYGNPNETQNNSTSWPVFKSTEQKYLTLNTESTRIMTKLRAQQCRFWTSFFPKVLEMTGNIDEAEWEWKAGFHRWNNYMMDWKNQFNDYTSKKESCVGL

## CCN(CC)CC#CCOC(=O)C(O)(c1ccccc1)C1CCCCC1 (centres unmarked) [Oxybutynin]
Hartley male guinea pig; oxybutynin 1 mg/kg + acetylcholine 1 mg/kg
  Amount of saliva secreted: 0.11 ± 0.02 g
[1]; iv alone
  Bladder volume, proportion for value before administration (%): 28.87 ± 7.01 %
  Maximum urine flow rate, proportion for value before administration (%): −44.42 ± 9.44 %
  Urination efficiency, proportion for value before administration (%): −66.14 ± 5.91 %
[1]; compound A 0.003, 0.01 mg/kg with oxybutynin
  action on bladder volume, maximum urine flow rate and urination efficiency: significant increase of bladder volume and the lowering of the maximum urine flow rate and urination efficiency were confirmed
Male SD rat; rat and guinea pig (Tables 9 and 10)
  action on acetylcholine-induced secretion of saliva: significantly suppressed
Male SD rat; oxybutynin 0.1 mg/kg + acetylcholine 1 mg/kg
  Amount of saliva secreted: 0.17 ± 0.02 g

## CC(=O)OCC[N+](C)(C)C [Acetylcholine]
Hartley male guinea pig; [5]
  Amount of saliva secreted: 0.23 ± 0.03 g
Male SD rat; [5]
  Amount of saliva secreted: 0.27 ± 0.04 g

## Cn1c(=O)n(C)c2cc(C(=O)CCCCNCCc3ccccc3Cl)ccc21 [Compound B6, 5-[5-[[2-(2-chlorophenyl)ethyl]amino]pentanoyl]-1,3-dimethyl-1,3-dihydro-2H-benzoimidazol-2-one) hydrochloride]
[2]; BuChE IC50/AChE IC50 (Table 3)
  Selectivity b/a: >140
[2]; mean value of twice tests, read-out: AchE IC50
  IC50: 71 nM
[3]
  Bladder compliance, proportion for value before administration: 98.6 ± 6.9
  Maximum urine flow rate, proportion for value before administration: 147.1 ± 26.2
[4]
  IC50: > 10000 nM
